According to patent US8618074B2, “GPCR enhanced neuroprotection to treat brain injury” (Board of Regents of the University of Texas System, priority 2007, dated 2013):

Key:
astrocytes [1] = assay: MCB (reduced GSH) fluorescence of cortical astrocytes after RB-induced clot/ischemia; type: in vivo, mouse; conditions: 340 minutes after the initial clot; tail vein injection with RB
Procedure: In another series of experiments, a transgenic mouse expressing green fluorescent protein (GFP) in astrocytes was prepared for imaging. In this mouse, the cortical cells were labeled with monochlorobimane (MCB), a fluorescent indicator of reduced GSH. After obtaining an image of astrocytes (GFP) and MCB fluorescence, the mouse was tail vein injected with Rose Bengal (RB), FITC-dextran and the P2Y-R agonist 2-MeSADP. A clot was induced with 543 nm irradiation in a region of the brain. Breakdown of the blood brain barrier in the region near this clot permitted secretion of 2-MeSADP in the nearby astrocytes. MCB fluorescence was maintained for over an hour in all of the cells in the field of view. […] The persistence of GSH in this area indicates an enhanced region of protection against oxidative stress caused by ischemia. Lineplots of MCB fluorescence of the astrocytes is depicted in FIG. 7. Cells a1-a3 are within the protected zone and cells a4-a6 are outside this area.

astrocytes [2] = assay: Fura-2 two-photon imaging of intracellular Ca2+ response; type: cell-based, mouse
Procedure: Ca^2+ activity was imaged as previously described (Camacho and Lechleiter, 1995). In brief, cultured astrocytes were incubated with the fura-2 am (Molecular Probes, #F-1221) 30 min prior to the experiment. Images were acquired with two-photon excitation (800 nm) at the rate of 1.5 images/ sec. […] Images were analyzed with Image J and ANALYZE® software (the Mayo Foundation, Rochester, MN). The D-enantiomer of the 1P3-BM ester was synthesized by Stuart Conway in the Cambridge University Chemical Laboratory by using a modification of the protocol of Tsien and co-workers (Li et al., 1997).
The primary response of glial cells to extracellular ATP is an increase in intracellular Ca^2+. To investigate whether the protective effect of ATP could be initiated by a Ca^2+ response, we loaded cultures of astrocytes with the Ca^2+ indicator dye Fura-2 AM (10 μM for 30 minutes). Fura-2 fluorescence was imaged with 2-photon microscopy using 800 nm excitation. At this wavelength, fluorescence is primarily due to the Ca^2+ free form of fura-2. […] When young astrocyte cultures were exposed to extracellular ATP (10 μM for 10 minutes), the peak intracellular Ca^2+ (−ΔF/F) was increased to 0.46±0.02 (n=25, pooled from 2 experiments). […] We tested whether the ATP-induced Ca^2+ response could be attributed to the metabotropic pathway, since IP3 mediated Ca^2+ release can stimulate mitochondrial energy production as well as sensitize mitochondria to apoptotic stimuli. Astrocytes cultured from old mice were pretreated with Xestospongin C (XeC, 25 μM for 30 minutes), which is a competitive inhibitor of IP3 binding to the IP3R. […] This is consistent with other reports showing that activation of the ionotropic P2X receptor activation also increases Ca^2+ in cultured astrocytes. To determine whether the metabotropic pathway was involved with the protective effect of extracellular ATP, we subsequently exposed the XeC/ATP treated astrocytes to oxidative stress. As described above, the perfusate contained t-BuOOH (100 μM) and TMRE (200 nM) to monitor ΔΨ. Under these experimental conditions, the average time until ΔΨ collapse was reduced to 5.48±0.22 (n=23, pooled from 2 experiments) in young astrocytes (FIG. 1C) and to 4.02±0.18 h (n=19, pooled from 2 experiments) in old astrocytes (FIG. 2C). […] We concluded that the protective effect of ATP on astrocytes was mediated by P2Y-receptors (P2Y-Rs).

**Q.** For `CSc1nc(N)c2ncn([C@@H]3O[C@H](COP(=O)(O)OP(=O)(O)O)[C@@H](O)[C@H]3O)c2n1` [2-MeSADP], which “MCB fluorescence (GSH) of astrocytes near the initial clot zone” value (astrocytes [1]) is on record?
**A.** essentially maintained

**Q.** With `Nc1ncnc2c1ncn2[C@@H]1O[C@H](COP(=O)(O)OP(=O)(O)OP(=O)(O)O)[C@@H](O)[C@H]1O` [ATP] as the compound, how does the “peak Ca2+ amplitude (−ΔF/F)” value (astrocytes [2]; old astrocytes, ATP 10 μM) read?
**A.** 0.46±0.04

**Q.** What about the “peak intracellular Ca2+ (−ΔF/F)” value (astrocytes [2]; young astrocytes, ATP 10 μM for 10 minutes) of the same compound?
**A.** 0.46±0.02
